Ki data for two compounds are collected here from publication PMC6479789, “High Consistency of Structure-Based Design and X-Ray Crystallography: Design, Synthesis, Kinetic Evaluation and Crystallographic Binding Mode Determination of Biphenyl-N-acyl-β-D-Glucopyranosylamines as Glycogen Phosphorylase Inhibitors” (Molecules, 2019).

What all share (assay type): biochemical
The target of test [1] is T1, rmGPa (Oryctolagus cuniculus, UniProt P00489).
T1 construct: gene PYGM; native rabbit skeletal muscle GPb converted to the phosphorylated a form with truncated gamma subunit of rabbit phosphorylase kinase
T1 sequence (P00489 2-843): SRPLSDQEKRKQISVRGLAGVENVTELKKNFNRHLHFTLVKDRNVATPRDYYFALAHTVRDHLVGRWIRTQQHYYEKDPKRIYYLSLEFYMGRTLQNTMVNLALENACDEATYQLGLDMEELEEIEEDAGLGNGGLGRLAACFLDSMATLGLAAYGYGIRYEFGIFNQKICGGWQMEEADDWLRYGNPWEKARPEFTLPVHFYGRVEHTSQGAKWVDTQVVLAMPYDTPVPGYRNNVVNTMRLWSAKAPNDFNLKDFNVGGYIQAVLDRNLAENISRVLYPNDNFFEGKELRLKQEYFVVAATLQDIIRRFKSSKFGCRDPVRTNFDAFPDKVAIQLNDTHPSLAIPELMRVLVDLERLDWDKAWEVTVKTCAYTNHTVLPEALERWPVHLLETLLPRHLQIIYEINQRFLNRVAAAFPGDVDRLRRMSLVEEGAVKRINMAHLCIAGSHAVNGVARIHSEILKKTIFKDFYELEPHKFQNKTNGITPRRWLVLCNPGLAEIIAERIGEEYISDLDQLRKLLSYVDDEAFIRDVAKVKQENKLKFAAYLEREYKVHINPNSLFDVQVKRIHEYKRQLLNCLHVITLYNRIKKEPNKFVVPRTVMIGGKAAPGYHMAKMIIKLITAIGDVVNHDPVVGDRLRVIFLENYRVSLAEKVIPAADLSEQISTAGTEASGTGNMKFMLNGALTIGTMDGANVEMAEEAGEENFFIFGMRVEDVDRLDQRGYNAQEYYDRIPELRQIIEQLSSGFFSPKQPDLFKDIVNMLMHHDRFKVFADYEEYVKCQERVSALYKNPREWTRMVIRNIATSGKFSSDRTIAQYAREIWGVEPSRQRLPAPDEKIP
Description: inorganic phosphate release, glycogen synthesis direction. From the text: inorganic phosphate release, glycogen synthesis direction on rmGPa

In test [2] the target is T2, hlGPa (Homo sapiens, UniProt P06737).
T2 construct: gene PYGL; recombinant human liver GPb (produced as described previously) converted to the phosphorylated a form with truncated gamma subunit of rabbit phosphorylase kinase
T2 sequence (P06737 2-847): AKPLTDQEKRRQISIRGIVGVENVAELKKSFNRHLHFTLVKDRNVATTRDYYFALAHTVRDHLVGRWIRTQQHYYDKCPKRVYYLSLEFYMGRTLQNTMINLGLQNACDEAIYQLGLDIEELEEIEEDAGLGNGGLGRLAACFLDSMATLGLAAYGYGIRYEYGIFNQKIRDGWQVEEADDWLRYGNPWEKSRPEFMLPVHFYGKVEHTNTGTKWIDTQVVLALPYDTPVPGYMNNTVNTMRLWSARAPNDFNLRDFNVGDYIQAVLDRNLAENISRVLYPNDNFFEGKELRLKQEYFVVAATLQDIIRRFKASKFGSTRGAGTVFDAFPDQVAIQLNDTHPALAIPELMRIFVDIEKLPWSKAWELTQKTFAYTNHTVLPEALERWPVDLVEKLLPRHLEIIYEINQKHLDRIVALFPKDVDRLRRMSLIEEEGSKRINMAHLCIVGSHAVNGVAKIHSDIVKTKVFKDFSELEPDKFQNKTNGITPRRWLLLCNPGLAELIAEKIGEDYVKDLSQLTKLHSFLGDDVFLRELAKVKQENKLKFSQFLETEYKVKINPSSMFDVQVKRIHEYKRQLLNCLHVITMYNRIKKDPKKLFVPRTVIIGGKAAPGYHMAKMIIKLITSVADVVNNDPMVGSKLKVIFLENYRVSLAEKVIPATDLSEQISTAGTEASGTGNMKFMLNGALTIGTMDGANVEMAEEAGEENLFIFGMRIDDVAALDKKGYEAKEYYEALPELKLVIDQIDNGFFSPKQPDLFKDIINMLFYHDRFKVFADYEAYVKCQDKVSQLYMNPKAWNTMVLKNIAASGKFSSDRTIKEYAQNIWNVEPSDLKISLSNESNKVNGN
Described as above. The text has this:
inorganic phosphate release, glycogen synthesis direction on hlGPa

Test [3] has as its target T3, rmGPb (Oryctolagus cuniculus, UniProt P00489).
T3 construct: gene PYGM; native, purified from rabbit skeletal muscles (Fischer and Krebs), unphosphorylated b form
T3 sequence (P00489 2-843): T1 sequence (P00489 2-843)
Briefly: inorganic phosphate release, glycogen synthesis direction; crystal structure of the complex also solved. The text has this: inorganic phosphate release, glycogen synthesis direction; crystal structure of the complex also solved on rmGPb

As for `O=C(N[C@@H]1O[C@H](CO)[C@@H](O)[C@H](O)[C@H]1O)c1cccc(-c2ccc(F)cc2)c1` [compound 3, 4’-fluoro-N-(3,4,5-trihydroxy-6-(hydroxymethyl)tetrahydro-2H-pyran-2-yl)biphenyl-3-carboxamide], the values for the Ki in test [1], in test [2] and in test [3] were 31.4 ± 2.2 µM, 45.6 ± 1.8 µM and 56.1 ± 4.4 µM, respectively.

Turning to `O=C(N[C@@H]1O[C@H](CO)[C@@H](O)[C@H](O)[C@H]1O)c1ccc(-c2ccccc2)cc1` [compound 4, N-(3,4,5-trihydroxy-6-(hydroxymethyl)tetrahydro-2H-pyran-2-yl)biphenyl-4-carboxamide], the Ki in test [1] was found to be 12.8 ± 0.6 µM; in test [2], 19.4 ± 0.2 µM; in test [3], 9.7 ± 0.7 µM.

The term Ki denotes a measure of affinity in units of concentration, obtained from inhibition or displacement. Read a high Ki as weaker binding.
